According to the supplement of paper PMC3770661:
Structures can show the parent of a compound that is named as a salt. ± gives the uncertainty stated by the source.

Tested on: HepG2 (L1.3 5'UTR promoter firefly luciferase reporter)
Experiment: L1 promoter activity (FLuc/RLuc) relative to DMSO vehicle control (% of control); higher = stronger L1 promoter activation
Description: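 HepG2 cells in 96-well plates were cotransfected with pGL4.11-L1.3 5'UTR (firefly luciferase driven by the human L1.3 5'UTR promoter) and pGL4.74 (HSV-TK Renilla luciferase internal control), then treated with compound for 6 or 24 h. FLuc/RLuc ratio was normalised to the DMSO vehicle control (% of control); concentrations where RLuc fell below 50% of control were excluded (N.D.). Mean of at least two independent experiments in duplicate or quadruplicate.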

[1] = concentration (uM unless unit written): 5, treatment time: 6 h
[2] = concentration (uM unless unit written): 200, treatment time: 6 h
[3] = concentration (uM unless unit written): 200, treatment time: 24 h
[4] = concentration (uM unless unit written): 50, treatment time: 6 h
[5] = concentration (uM unless unit written): 50, treatment time: 24 h
[6] = concentration (uM unless unit written): 100, treatment time: 6 h
[7] = concentration (uM unless unit written): 100, treatment time: 24 h
[8] = concentration (uM unless unit written): 500, treatment time: 6 h
[9] = concentration (uM unless unit written): 500, treatment time: 24 h
[10] = concentration (uM unless unit written): 125, treatment time: 6 h
[11] = concentration (uM unless unit written): 125, treatment time: 24 h
[12] = concentration (uM unless unit written): 250, treatment time: 6 h
[13] = concentration (uM unless unit written): 250, treatment time: 24 h
[14] = concentration (uM unless unit written): 10, treatment time: 6 h
[15] = concentration (uM unless unit written): 10, treatment time: 24 h
[16] = concentration (uM unless unit written): 1, treatment time: 6 h
[17] = concentration (uM unless unit written): 1, treatment time: 24 h
[18] = concentration (uM unless unit written): 3, treatment time: 6 h
[19] = concentration (uM unless unit written): 3, treatment time: 24 h
[20] = concentration (uM unless unit written): 1000, treatment time: 6 h
[21] = concentration (uM unless unit written): 1000, treatment time: 24 h
[22] = concentration (uM unless unit written): 2000, treatment time: 6 h
[23] = concentration (uM unless unit written): 2000, treatment time: 24 h
[24] = concentration (uM unless unit written): 0.5, treatment time: 6 h
[25] = concentration (uM unless unit written): 0.5, treatment time: 24 h

CNc1ccc2oc(C[C@H]3O[C@@]4(CC[C@H]3C)O[C@H]([C@H](C)C(=O)c3ccc[nH]3)[C@H](C)C[C@H]4C)nc2c1C(=O)O
L1 promoter activity (concentration (uM unless unit written): 0.75, treatment time: 6 h): 57.4 ± 16 | L1 promoter activity (concentration (uM unless unit written): 0.75, treatment time: 24 h): 57.4 ± 4.2 | L1 promoter activity (concentration (uM unless unit written): 1.5, treatment time: 6 h): 52.4 ± 8.8 | L1 promoter activity [1]: 54.4 ± 4.2

Cc1cccc(Nc2cc(Cl)nc(SCC(=O)O)n2)c1C
L1 promoter activity [2]: 98.9 ± 11 | L1 promoter activity [3]: 82.7 ± 5.2

CN(C)CCC(c1ccc(Cl)cc1)c1ccccn1 (racemic) [(±)-Chlorpheniramine maleate salt]
L1 promoter activity [4]: 91.1 ± 9.6 | L1 promoter activity [5]: 96.2 ± 19 | L1 promoter activity [6]: 101 ± 9.2 | L1 promoter activity [7]: 86.4 ± 8.2 | L1 promoter activity [8]: 84 ± 3.3

CN1CC=C(c2ccccc2)CC1 [1-Methyl-4-phenyl-1,2,3,6-tetrahydropyridine]
L1 promoter activity [8]: 115 ± 11 | L1 promoter activity [9]: 121 ± 19

COC1=C(OC)C(=O)c2ccccc2C1=O [2,3-Dimethoxy-1,4-naphthoquinone]
L1 promoter activity (concentration (uM unless unit written): 15, treatment time: 6 h): 119 ± 8.7 | L1 promoter activity (concentration (uM unless unit written): 30, treatment time: 6 h): 119 ± 8.1

O=C(O)CC[N+](=O)[O-] [3-Nitropropionic acid]
L1 promoter activity [10]: 114 ± 5 | L1 promoter activity [11]: 95.1 ± 5.4 | L1 promoter activity [12]: 112 ± 14 | L1 promoter activity [13]: 94.2 ± 18 | L1 promoter activity [8]: 119 ± 14 | L1 promoter activity [9]: 80.7 ± 11

C=CCCC(=O)O [4-Pentenoic acid]
L1 promoter activity (concentration (uM unless unit written): 25000, treatment time: 6 h): 102 ± 2.3 | L1 promoter activity (concentration (uM unless unit written): 25000, treatment time: 24 h): 28.2 ± 0.94 | L1 promoter activity (concentration (uM unless unit written): 50000, treatment time: 6 h): 99.1 ± 4.5 | L1 promoter activity (concentration (uM unless unit written): 50000, treatment time: 24 h): 22.5 ± 1.7 | L1 promoter activity (concentration (uM unless unit written): 100000, treatment time: 6 h): 101 ± 26 | L1 promoter activity (concentration (uM unless unit written): 100000, treatment time: 24 h): 25.8 ± 2.7

Nc1nc(=S)c2[nH]cnc2[nH]1 [6-Thioguanine]
L1 promoter activity (concentration (uM unless unit written): 2.5, treatment time: 6 h): 126 ± 16 | L1 promoter activity (concentration (uM unless unit written): 2.5, treatment time: 24 h): 98.6 ± 12 | L1 promoter activity [1]: 108 ± 17 | L1 promoter activity (concentration (uM unless unit written): 5, treatment time: 24 h): 102 ± 14 | L1 promoter activity [14]: 104 ± 4.2 | L1 promoter activity [15]: 97.3 ± 11

C[C@]12CC[C@@H]3c4ccc(O)cc4CC[C@H]3[C@@H]1CC[C@@H]2O [17β-Estradiol]
L1 promoter activity (concentration (uM unless unit written): 25, treatment time: 6 h): 101 ± 6.5 | L1 promoter activity (concentration (uM unless unit written): 25, treatment time: 24 h): 104 ± 11 | L1 promoter activity [4]: 119 ± 8.4 | L1 promoter activity [5]: 103 ± 16 | L1 promoter activity [6]: 107 ± 7.5 | L1 promoter activity [7]: 102 ± 15

COc1ccc2c(c1OC)C(=O)OC2C1c2c(cc3c(c2OC)OCO3)CCN1C [(S,R)-Noscapine]
L1 promoter activity [10]: 85.3 ± 11 | L1 promoter activity [11]: 40.8 ± 2.2 | L1 promoter activity [12]: 80.1 ± 20 | L1 promoter activity [13]: 33.3 ± 5.6 | L1 promoter activity [8]: 68.2 ± 9.4 | L1 promoter activity [9]: 30.4 ± 4.2

CC(=O)Nc1ccc(O)cc1 [Acetaminophen]
L1 promoter activity (concentration (uM unless unit written): 10000, treatment time: 6 h): 116 ± 12 | L1 promoter activity (concentration (uM unless unit written): 10000, treatment time: 24 h): 131 ± 18 | L1 promoter activity (concentration (uM unless unit written): 20000, treatment time: 6 h): 115 ± 9.1

CC(=O)Oc1ccccc1C(=O)O [Acetylsalicylic acid]
L1 promoter activity [16]: 103 ± 7.2 | L1 promoter activity [17]: 98.7 ± 9.5 | L1 promoter activity [18]: 115 ± 11 | L1 promoter activity [19]: 88.3 ± 11 | L1 promoter activity [14]: 107 ± 3.8 | L1 promoter activity [15]: 105 ± 9.7 | L1 promoter activity [4]: 106 ± 8.5 | L1 promoter activity [5]: 98.2 ± 29 | L1 promoter activity [6]: 123 ± 23 | L1 promoter activity [12]: 112 ± 13 | L1 promoter activity [13]: 105 ± 8.4 | L1 promoter activity [8]: 114 ± 14 | L1 promoter activity [9]: 86 ± 5.1 | L1 promoter activity [20]: 107 ± 12 | L1 promoter activity [21]: 91.3 ± 6 | L1 promoter activity [22]: 95.4 ± 8 | L1 promoter activity [23]: 67.7 ± 5.9 | L1 promoter activity (concentration (uM unless unit written): 3000, treatment time: 6 h): 105 ± 4 | L1 promoter activity (concentration (uM unless unit written): 3000, treatment time: 24 h): 53.3 ± 2.5 | L1 promoter activity (concentration (uM unless unit written): 5000, treatment time: 6 h): 111 ± 15 | L1 promoter activity (concentration (uM unless unit written): 5000, treatment time: 24 h): 40.8 ± 1.2

Cc1c2oc3c(C)ccc(C(=O)N[C@@H]4C(=O)N[C@H](C(C)C)C(=O)N5CCC[C@H]5C(=O)N(C)CC(=O)N(C)[C@@H](C(C)C)C(=O)O[C@@H]4C)c3nc-2c(C(=O)N[C@@H]2C(=O)N[C@H](C(C)C)C(=O)N3CCC[C@H]3C(=O)N(C)CC(=O)N(C)[C@@H](C(C)C)C(=O)O[C@@H]2C)c(N)c1=O [Actinomycin D]
L1 promoter activity (concentration (uM unless unit written): 0.0025, treatment time: 6 h): 132 ± 34 | L1 promoter activity (concentration (uM unless unit written): 0.005, treatment time: 6 h): 112 ± 12 | L1 promoter activity (concentration (uM unless unit written): 0.01, treatment time: 6 h): 110 ± 36 | L1 promoter activity (concentration (uM unless unit written): 0.01, treatment time: 24 h): 144 ± 19

CCC1(c2ccc(N)cc2)CCC(=O)NC1=O (stereo unspecified) [Aminoglutethimide]
L1 promoter activity [12]: 140 ± 58 | L1 promoter activity [13]: 126 ± 11 | L1 promoter activity [8]: 136 ± 35 | L1 promoter activity [9]: 102 ± 16 | L1 promoter activity [20]: 96 ± 7.4

CCOC(=O)C1=C(COCCN)NC(C)=C(C(=O)OC)C1c1ccccc1Cl (stereo unspecified) [Amlodipine besylate]
L1 promoter activity [24]: 93.6 ± 11 | L1 promoter activity [25]: 105 ± 8.9 | L1 promoter activity [16]: 104 ± 10 | L1 promoter activity [17]: 101 ± 22 | L1 promoter activity (concentration (uM unless unit written): 2, treatment time: 6 h): 95.7 ± 7.8 | L1 promoter activity (concentration (uM unless unit written): 2, treatment time: 24 h): 107 ± 12 | L1 promoter activity [14]: 85.2 ± 8.2

CCCCCC[C@H]1C(=O)O[C@H](C)[C@H](NC(=O)c2cccc(NC=O)c2O)C(=O)O[C@@H](C)[C@@H]1OC(=O)CC(C)C [Antimycin A]
L1 promoter activity (concentration (uM unless unit written): 0.075, treatment time: 6 h): 101 ± 17 | L1 promoter activity (concentration (uM unless unit written): 0.075, treatment time: 24 h): 115 ± 21 | L1 promoter activity [16]: 101 ± 5.7 | L1 promoter activity [17]: 109 ± 8.4

Cc1cn([C@H]2C[C@H](N=[N+]=[N-])[C@@H](CO)O2)c(=O)[nH]c1=O [Azidothymidine]
L1 promoter activity [4]: 107 ± 25 | L1 promoter activity [6]: 106 ± 26 | L1 promoter activity [2]: 111 ± 27 | L1 promoter activity [3]: 104 ± 13 | L1 promoter activity [21]: 110 ± 7.2

c1ccc2c(c1)cc1ccc3cccc4ccc2c1c34 [Benzo(a)pyrene]
L1 promoter activity [24]: 102 ± 12 | L1 promoter activity [25]: 132 ± 17 | L1 promoter activity [16]: 117 ± 12 | L1 promoter activity [17]: 140 ± 22 | L1 promoter activity [18]: 133 ± 18 | L1 promoter activity [19]: 187 ± 37

CC(C)(Oc1ccc(CCNC(=O)c2ccc(Cl)cc2)cc1)C(=O)O [Bezafibrate]
L1 promoter activity [14]: 115 ± 13 | L1 promoter activity [15]: 105 ± 4.7 | L1 promoter activity [6]: 140 ± 11 | L1 promoter activity [7]: 133 ± 13 | L1 promoter activity [20]: 174 ± 14

CN(Cc1cc(Br)cc(Br)c1N)C1CCCCC1 [Bromhexine hydrochloride]
L1 promoter activity (concentration (uM unless unit written): 62.5, treatment time: 6 h): 108 ± 14 | L1 promoter activity (concentration (uM unless unit written): 62.5, treatment time: 24 h): 102 ± 7.2 | L1 promoter activity [10]: 97.8 ± 12 | L1 promoter activity [11]: 98.7 ± 12

CS(=O)(=O)OCCCCOS(C)(=O)=O [Busulfan]
L1 promoter activity [6]: 111 ± 33 | L1 promoter activity [12]: 119 ± 29 | L1 promoter activity [8]: 131 ± 39 | L1 promoter activity [9]: 122 ± 39

CC[C@@]1(O)C(=O)OCc2c1cc1n(c2=O)Cc2cc3ccccc3nc2-1 [Camptothecin]
L1 promoter activity (concentration (uM unless unit written): 0.05, treatment time: 6 h): 110 ± 17 | L1 promoter activity (concentration (uM unless unit written): 0.05, treatment time: 24 h): 142 ± 21 | L1 promoter activity (concentration (uM unless unit written): 0.1, treatment time: 6 h): 98.1 ± 16 | L1 promoter activity (concentration (uM unless unit written): 0.1, treatment time: 24 h): 135 ± 21 | L1 promoter activity (concentration (uM unless unit written): 0.3, treatment time: 6 h): 103 ± 22 | L1 promoter activity (concentration (uM unless unit written): 0.3, treatment time: 24 h): 152 ± 13

ClC(Cl)(Cl)Cl [Carbon tetrachloride]
L1 promoter activity [8]: 99.7 ± 5.5 | L1 promoter activity [9]: 91.3 ± 3.6 | L1 promoter activity [20]: 111 ± 5.9 | L1 promoter activity [21]: 90.7 ± 12 | L1 promoter activity [22]: 108 ± 8.1 | L1 promoter activity [23]: 98.4 ± 8.2

N.N.[Cl][Pt][Cl] [Cisplatin]
L1 promoter activity [14]: 109 ± 13 | L1 promoter activity [15]: 98.4 ± 13 | L1 promoter activity [4]: 117 ± 23 | L1 promoter activity [5]: 105 ± 7.7 | L1 promoter activity [6]: 148 ± 40 | L1 promoter activity [7]: 95.4 ± 19

CC1=C2C(=CO[C@H](C)[C@H]2C)C(O)=C(C(=O)O)C1=O [Citrinin]
L1 promoter activity (concentration (uM unless unit written): 45, treatment time: 6 h): 101 ± 12 | L1 promoter activity (concentration (uM unless unit written): 45, treatment time: 24 h): 104 ± 14 | L1 promoter activity (concentration (uM unless unit written): 90, treatment time: 6 h): 102 ± 10 | L1 promoter activity (concentration (uM unless unit written): 90, treatment time: 24 h): 134 ± 25

CCOC(=O)C(C)(C)Oc1ccc(Cl)cc1 [Clofibrate]
L1 promoter activity [14]: 113 ± 11 | L1 promoter activity [15]: 112 ± 7.9 | L1 promoter activity [6]: 102 ± 11 | L1 promoter activity [7]: 100 ± 9.5 | L1 promoter activity [20]: 106 ± 17 | L1 promoter activity [21]: 132 ± 23
